Results: patent publication US6846500B1, “Oral care chewing gums and method of use” (Cadbury Adams USA LLC, priority 1999, dated 2005)

Assay: Calcium precipitation on mixing CPP-ACP and sodium bicarbonate; calcium retained on filter by Atomic Absorption
Format: physicochemical, human
Experimental: The in vivo test was done to first determine the release of CPP-ACP. A five person panel chewed a gum containing 1% CPP-ACP. […] CPP-ACP and sodium bicarbonate at these concentration were incubated in a 30 ml pooled human saliva with moderate shaking at 37° C. for 3 minutes to test precipitation upon consumption of the gum and at 1 hour to show how longer contact time would precipitate calcium carbonate. The resultant pH of the incubation solution was approximately 7. The solution was filtered, the retentate was rinsed with deionized H2O to remove any soluble calcium and the result was analyzed for calcium content by Atomic Absorption analysis. As a control an aqueous solution of 30 g of a 0.3% CPP-ACP solution was pass through the filter paper.

Calcium retained (30 g of saliva stored at 37° C. for 3 minutes): 1.700 mg
Calcium retained (30 g of saliva stored at 37° C. for 3 minutes, listed as sodium bicarbonate): 1.7 mg
Calcium retained (30 g of saliva stored at 37° C. for 1 hour): 1.600 mg
Compound: O=C([O-])O.[Na+] [NaHCO3, sodium bicarbonate]
